Experimental data: ChEMBL document CHEMBL1127954, “A new approach to synthesis of vinblastine analogs. Addition of organozinc reagents to the dihydropyridinium ion generated by fragmentative coupling to catharanthine and vindoline” (Bioorg Med Chem Lett, 1994)
Several values for one entry are separate records, joined by “and”; a condition that tells them apart may be missing. Equal values may be shown once.

Target: Tubulin (Bos taurus, UniProt Q6B856+Q862L2+Q862F3)
Experiment: In vitro inhibitory activity against bovine brain tubulin assembly at a concentration of 3-3.5 mg/ml
Type: functional

`CCC1=CC2CN(CCc3c([nH]c4ccccc34)[C@@](C(=O)OC)(c3cc4c(cc3OC)N(C)C3C45CCN4CC=CC(CC)(C45)C(OC(C)=O)[C@]3(O)C(=O)OC)C2)[C@@H]1c1ccccc1` (stereo not given in full) was tested. Which IC50 did it give?
Its IC50 is 1400 nM and 1600 nM.

With `CCC1CN2CCc3c([nH]c4ccccc34)[C@@](C(=O)OC)(c3cc4c(cc3OC)N(C)C3C45CCN4CC=CC(CC)(C45)C(OC(C)=O)[C@]3(O)C(=O)OC)CC(C2)[C@H]1c1ccccc1` (stereo not given in full) as the compound, how does the IC50 read?
The IC50 was 500 nM and 600 nM.

With `CCC1CN2CCc3c([nH]c4ccccc34)[C@@](C(=O)OC)(c3cc4c(cc3OC)N(C)C3C45CCN4CC=CC(CC)(C45)C(OC(C)=O)[C@]3(O)C(=O)OC)CC(C2)[C@H]1CC` (stereo not given in full) as the compound, how does the IC50 read?
Its IC50 is 1300 nM and 1400 nM.

`CCC1CN2CCc3c([nH]c4ccccc34)[C@@](C(=O)OC)(c3cc4c(cc3OC)N(C)C3C45CCN4CC=CC(CC)(C45)C(OC(C)=O)[C@]3(O)C(=O)OC)CC(C2)[C@H]1C(C)(C)C` (stereo not given in full) was tested. Which IC50 did it give?
Its IC50 is 400 nM.

Which IC50 does the source give for `CCC1=CC2CN(CCc3c([nH]c4ccccc34)[C@@](C(=O)OC)(c3cc4c(cc3OC)N(C)C3C45CCN4CC=CC(CC)(C45)C(OC(C)=O)[C@]3(O)C(=O)OC)C2)[C@@H]1C#Cc1ccccc1` (stereo not given in full) here?
The IC50 was 21000 nM and 28000 nM.
